ChEMBL document CHEMBL1201862, “PubChem BioAssay data set” (2004)
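Interpolation was linear, between the two tested concentrations surrounding the appropriate level; five concentrations were tested over 48 hours in 96-well plates. GI50 is the concentration that inhibits growth by half.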 The source made the active and inactive calls. Cut-off read from the data, not from the text of the source: active = GI50 up to about 1.1 µM and inactive = higher.

Assays:
Experiment in all cases: growth of human tumour cells (NCI), 48 h
786-0 = system: 786-0
A498 = system: A498
A549 = system: A549
ACHN = system: ACHN
BT-549 = system: BT-549
CCRF-CEM = system: CCRF-CEM
COLO 205 = system: COLO 205
DLD-1 = system: DLD-1
DMS-114 = system: DMS-114
DMS-273 = system: DMS-273
DU-145 = system: DU-145
EKVX = system: EKVX
HCC 2998 = system: HCC 2998
HCT-116 = system: HCT-116
HCT-15 = system: HCT-15
HL-60 = system: HL-60
HOP-62 = system: HOP-62
HOP-92 = system: HOP-92
HT-29 = system: HT-29
IGROV-1 = system: IGROV-1
K562 = system: K562
KM-20L2 = system: KM-20L2
KM12 = system: KM12
LOX IMVI = system: LOX IMVI
LXFL 529 = system: LXFL 529
M14 = system: M14
M19-MEL = system: M19-MEL
MCF7 = system: MCF7
MDA-MB-231 = system: MDA-MB-231
MDA-N = system: MDA-N
MOLT-4 = system: MOLT-4
Malme-3M = system: Malme-3M
NCI-H226 = system: NCI-H226
NCI-H23 = system: NCI-H23
NCI-H460 = system: NCI-H460
NCI-H522 = system: NCI-H522
NCI/ADR-RES = system: NCI/ADR-RES
OVCAR-3 = system: OVCAR-3
OVCAR-4 = system: OVCAR-4
OVCAR-5 = system: OVCAR-5
OVCAR-8 = system: OVCAR-8
PC-3 = system: PC-3
RPMI-8226 = system: RPMI-8226
RXF 393 = system: RXF 393
SF-268 = system: SF-268
SF-295 = system: SF-295
SF-539 = system: SF-539
SK-MEL-28 = system: SK-MEL-28
SK-MEL-2 = system: SK-MEL-2
SK-MEL-5 = system: SK-MEL-5
SK-OV-3 = system: SK-OV-3
SN12C = system: SN12C
SNB-19 = system: SNB-19
SNB-75 = system: SNB-75
SNB-78 = system: SNB-78
SR = system: SR
SW-620 = system: SW-620
T47D = system: T47D
TK-10 = system: TK-10
U-251 = system: U-251
UACC-257 = system: UACC-257
UACC-62 = system: UACC-62
UO-31 = system: UO-31
XF498 = system: XF498

CCOC(=O)CSc1nnc(CSc2nc(-c3ccccc3)c(-c3ccccc3)[nH]2)n1-c1ccccc1 was tested, and the GI50 (786-0) was 24.6 µM (inactive), the GI50 (A498) was 17.9 µM (inactive) and the GI50 (A549) was > 100 µM (inactive). For the same compound, the GI50 (ACHN) was 18.3 µM (inactive), the GI50 (BT-549) was > 100 µM (inactive) and the GI50 (CCRF-CEM) was > 54 µM (inactive). For the same compound, the GI50 (COLO 205) was > 58.2 µM (inactive), the GI50 (DLD-1) was > 100 µM (inactive) and the GI50 (DMS-114) was 15.3 µM (inactive). For the same compound, the GI50 (DMS-273) was > 100 µM (inactive), the GI50 (DU-145) was 15.4 µM (inactive) and the GI50 (EKVX) was > 100 µM (inactive). For the same compound, the GI50 (HCC 2998) was 19.5 µM (inactive), the GI50 (HCT-116) was > 56.5 µM (inactive) and the GI50 (HCT-15) was over 100 µM. The GI50 (HL-60) was 49.5 µM (inactive), the GI50 (HOP-62) was > 100 µM (inactive) and the GI50 (HOP-92) was 40.4 µM (inactive). The GI50 (HT-29) was 48.8 µM (inactive), the GI50 (IGROV-1) was > 83 µM (inactive) and the GI50 (K562) was > 100 µM (inactive). The GI50 (KM-20L2) was 27.7 µM (inactive), the GI50 (KM12) was > 75.9 µM (inactive) and the GI50 (LOX IMVI) was > 61.5 µM (inactive). For the same compound, the GI50 (LXFL 529) was 21.1 µM (inactive), the GI50 (M14) was > 45 µM (inactive) and the GI50 (M19-MEL) was 38.8 µM (inactive). For the same compound, the GI50 (MCF7) was 66.4 µM (inactive), the GI50 (MDA-MB-231) was 34.5 µM (inactive) and the GI50 (MDA-N) was 75.3 µM (inactive). The GI50 (MOLT-4) was > 49.8 µM (inactive), the GI50 (Malme-3M) was > 69.2 µM (inactive) and the GI50 (NCI-H226) was 42.3 µM (inactive). For the same compound, the GI50 (NCI-H23) was > 100 µM (inactive), the GI50 (NCI-H460) was > 100 µM (inactive) and the GI50 (NCI-H522) was > 87.7 µM (inactive). The GI50 (NCI/ADR-RES) was 61.9 µM (inactive), the GI50 (OVCAR-3) was > 100 µM (inactive) and the GI50 (OVCAR-4) was 22.1 µM (inactive). For the same compound, the GI50 (OVCAR-5) was > 59.2 µM (inactive), the GI50 (OVCAR-8) was 18.7 µM (inactive) and the GI50 (PC-3) was 20.7 µM (inactive). The GI50 (RPMI-8226) was > 80.4 µM (inactive), the GI50 (RXF 393) was 22.5 µM (inactive) and the GI50 (SF-268) was 26.1 µM (inactive). For the same compound, the GI50 (SF-295) was > 100 µM (inactive), the GI50 (SF-539) was 20.7 µM (inactive) and the GI50 (SK-MEL-28) was > 58.7 µM (inactive). For the same compound, the GI50 (SK-MEL-2) was > 31.6 µM (inactive), the GI50 (SK-MEL-5) was > 100 µM (inactive) and the GI50 (SK-OV-3) was 23.4 µM (inactive). The GI50 (SN12C) was 18.9 µM (inactive), the GI50 (SNB-19) was > 100 µM (inactive) and the GI50 (SNB-75) was > 100 µM (inactive). For the same compound, the GI50 (SNB-78) was 27.9 µM (inactive), the GI50 (SR) was 39.4 µM (inactive) and the GI50 (SW-620) was > 100 µM (inactive). The GI50 (T47D) was 26.7 µM (inactive), the GI50 (TK-10) was 17 µM (inactive) and the GI50 (U-251) was > 100 µM (inactive). For the same compound, the GI50 (UACC-257) was 29.3 µM (inactive), the GI50 (UACC-62) was 27.2 µM (inactive) and the GI50 (UO-31) was 18.2 µM (inactive). The GI50 (XF498) was 24.3 µM (inactive).

In the case of COc1ccc([N+]2=NC(c3ccc([N+](=O)[O-])cc3)=NN(c3ccccc3)C2)cc1.[O-][Cl+3]([O-])([O-])[O-], the GI50 (786-0) is reported as > 100 µM (inactive), the GI50 (A498) is reported as > 100 µM (inactive) and the GI50 (A549) is reported as > 100 µM (inactive). For the same compound, the GI50 (ACHN) was 86.5 µM (inactive), the GI50 (CCRF-CEM) was 21.2 µM (inactive) and the GI50 (COLO 205) was 10 µM (inactive). For the same compound, the GI50 (DLD-1) was 34.9 µM (inactive), the GI50 (DMS-114) was 40.6 µM (inactive) and the GI50 (DMS-273) was > 100 µM (inactive). The GI50 (EKVX) was 91.2 µM (inactive), the GI50 (HCC 2998) was > 100 µM (inactive) and the GI50 (HCT-116) was 65.5 µM (inactive). For the same compound, the GI50 (HCT-15) was 41.9 µM, the GI50 (HL-60) was 22.3 µM (inactive) and the GI50 (HOP-62) was > 100 µM (inactive). For the same compound, the GI50 (HT-29) was 62.7 µM (inactive), the GI50 (IGROV-1) was 33.2 µM (inactive) and the GI50 (K562) was 28.1 µM (inactive). The GI50 (KM-20L2) was 58.9 µM (inactive), the GI50 (KM12) was 90.2 µM (inactive) and the GI50 (LOX IMVI) was 68.5 µM (inactive). For the same compound, the GI50 (LXFL 529) was 47.3 µM (inactive), the GI50 (MOLT-4) was 31.8 µM (inactive) and the GI50 (Malme-3M) was > 100 µM (inactive). For the same compound, the GI50 (NCI-H226) was > 100 µM (inactive), the GI50 (NCI-H23) was > 100 µM (inactive) and the GI50 (NCI-H460) was 64.6 µM (inactive). For the same compound, the GI50 (NCI-H522) was 3.65 µM (inactive), the GI50 (OVCAR-3) was 79.4 µM (inactive) and the GI50 (OVCAR-4) was > 100 µM (inactive). For the same compound, the GI50 (OVCAR-5) was > 100 µM (inactive), the GI50 (OVCAR-8) was > 100 µM (inactive) and the GI50 (RPMI-8226) was 33 µM (inactive). The GI50 (RXF 393) was 67.9 µM (inactive), the GI50 (SF-268) was > 100 µM (inactive) and the GI50 (SF-295) was 74.8 µM (inactive). For the same compound, the GI50 (SK-MEL-28) was > 100 µM (inactive), the GI50 (SK-MEL-5) was 28.4 µM (inactive) and the GI50 (SN12C) was > 100 µM (inactive). For the same compound, the GI50 (SNB-19) was > 100 µM (inactive), the GI50 (SNB-78) was > 100 µM (inactive) and the GI50 (SR) was 44.2 µM (inactive). The GI50 (SW-620) was > 100 µM (inactive), the GI50 (TK-10) was > 100 µM (inactive) and the GI50 (U-251) was 36.1 µM (inactive). For the same compound, the GI50 (UACC-257) was > 100 µM (inactive), the GI50 (UO-31) was 51.5 µM (inactive) and the GI50 (XF498) was 53.6 µM (inactive).
